Data reported in ChEMBL document CHEMBL5360532, “Current scenario of quinolone hybrids with potential antibacterial activity against ESKAPE pathogens” (Eur J Med Chem, 2023).
In brackets after ≈: the same amount, converted by molar mass.

Legend:
Type in all cases: functional
Staphylococcus aureus [1] = experiment: Antibacterial activity against Staphylococcus aureus assessed as bacterial growth inhibition by broth microdilution assay
Escherichia coli [2] = experiment: Antibacterial activity against Escherichia coli assessed as bacterial growth inhibition by broth microdilution assay
Pseudomonas aeruginosa [3] = experiment: Antibacterial activity against Pseudomonas aeruginosa assessed as bacterial growth inhibition by broth microdilution assay
Escherichia coli [4] = experiment: Antibacterial activity against Escherichia coli assessed as bacterial growth inhibition by two fold microdilution assay
Klebsiella pneumoniae [5] = experiment: Antibacterial activity against Klebsiella pneumoniae assessed as bacterial growth inhibition by two fold microdilution assay
Staphylococcus aureus [6] = experiment: Antibacterial activity against Staphylococcus aureus assessed as bacterial growth inhibition by two fold microdilution assay
Staphylococcus aureus [7] = experiment: Antibacterial activity against methicillin resistant Staphylococcus aureus ATCC 33591 assessed as bacterial growth inhibition measured after 16 to 18 hrs by serial dilution method; conditions: time 16-18 hrs
Enterococcus faecalis = experiment: Antibacterial activity against Enterococcus faecalis assessed as bacterial growth inhibition by broth microdilution assay
Escherichia coli [8] = experiment: Antibacterial activity against fluoroquinolone Escherichia coli assessed as bacterial growth inhibition by broth microdilution assay
Escherichia coli [9] = experiment: Antibacterial activity against Escherichia coli ATCC 8739 assessed as bacterial growth inhibition by two fold microdilution assay
Staphylococcus aureus [10] = experiment: Antibacterial activity against Staphylococcus aureus ATCC 6538P assessed as bacterial growth inhibition by two fold microdilution assay
Staphylococcus aureus [11] = experiment: Antibacterial activity against Staphylococcus aureus assessed as bacterial growth inhibition by agar cup diffusion assay
Staphylococcus aureus [12] = experiment: Antibacterial activity against methicillin resistant Staphylococcus aureus assessed as bacterial growth inhibition by agar cup diffusion assay
Escherichia coli [13] = experiment: […] activity against Escherichia coli assessed as bacterial growth inhibition by broth dilution assay
Escherichia coli [14] = experiment: Antibacterial activity against Escherichia coli ATCC 10536 assessed as bacterial growth inhibition measured after 24 to 48 hrs by agar dilution assay; conditions: time 24-48 hrs
Pseudomonas aeruginosa [15] = experiment: Antibacterial activity against Pseudomonas aeruginosa ATCC 11632 assessed as bacterial growth inhibition measured after 24 to 48 hrs by agar dilution assay; conditions: time 24-48 hrs
Escherichia coli [16] = experiment: Antibacterial activity against Escherichia coli assessed as bacterial growth inhibition by agar cup diffusion assay
Pseudomonas aeruginosa [17] = experiment: Antibacterial activity against Pseudomonas aeruginosa assessed as bacterial growth inhibition by agar cup diffusion assay
Klebsiella pneumoniae [18] = experiment: Antibacterial activity against Klebsiella pneumoniae assessed as bacterial growth inhibition by agar cup diffusion assay
Staphylococcus aureus [19] = experiment: Potency index, ratio of ciprofloxacin MIC to test compound MIC for antimicrobial activity against Staphylococcus aureus assessed as bacterial growth inhibition by agar cup diffusion assay
Escherichia coli [20] = experiment: Potency index, ratio of ciprofloxacin MIC to test compound MIC for antimicrobial activity against Escherichia coli assessed as bacterial growth inhibition by agar cup diffusion assay
[21] = system: Mycobacterium tuberculosis; experiment: Antimycobacterial activity against Mycobacterium tuberculosis H37Rv assessed as bacterial growth inhibition by broth microdilution assay
Staphylococcus aureus [22] = experiment: Antibacterial activity against Staphylococcus aureus ATCC 25923 assessed as bacterial growth inhibition measured after 18 hrs by agar dilution assay
Escherichia coli [23] = experiment: Antibacterial activity against Escherichia coli ATCC 25922 assessed as bacterial growth inhibition measured after 18 hrs by agar dilution assay

CCn1cc(C(=O)O)c(=O)c2cc(F)c(N3CCN(Cn4nc(-c5ccncc5)oc4=S)CC3)cc21
MIC (Staphylococcus aureus [1]): ≤ 0.125 µg/mL | MIC (Escherichia coli [2]): ≤ 0.125 µg/mL | MIC (Pseudomonas aeruginosa [3]): ≤ 0.125 µg/mL

CCn1cc(C(=O)O)c(=O)c2cc(F)c(N3CCN(Cn4nc(Cn5nc(C)n(/N=C/c6ccccc6O)c5=O)n(-c5ccccc5)c4=S)CC3)cc21
MIC (Escherichia coli [4]): < 0.24 µg/mL | MIC (Klebsiella pneumoniae [5]): < 0.24 µg/mL | MIC (Staphylococcus aureus [6]): < 28 µg/mL

Cc1ccc(-c2ccnc(Nc3ccc4c(=O)c(C(=O)O)cn(C5CC5)c4c3)n2)cc1
MIC (Staphylococcus aureus [7]): 0.38 µg/mL (≈ 0.921 µM)

CCCCCCOc1ccc(C2C(Cl)C(=O)N2c2cc3[nH]cc(C(=O)O)c(=O)c3cc2F)cc1 (stereo not given)
MIC (Staphylococcus aureus [1]): 0.02 µg/mL (≈ 0.0411 µM) | MIC (Escherichia coli [2]): 0.02 µg/mL (≈ 0.0411 µM) | MIC (Enterococcus faecalis): 0.02 µg/mL (≈ 0.0411 µM) | MIC (Escherichia coli [8]): 0.02 µg/mL (≈ 0.0411 µM)

Cc1nn(Cc2nn(CN3CCN(c4cc5c(cc4F)c(=O)c(C(=O)O)cn5C4CC4)CC3)c(=O)n2-c2ccccc2)c(=O)n1/N=C/c1ccccc1O
MIC (Escherichia coli [4]): < 0.24 µg/mL | MIC (Klebsiella pneumoniae [5]): < 0.24 µg/mL | MIC (Staphylococcus aureus [6]): < 28 µg/mL

CCn1cc(C(=O)O)c(=O)c2cc(F)c(N3CCN(Cn4nc(-c5cccs5)n(-c5ccc(OC)cc5)c4=S)CC3)cc21
MIC (Klebsiella pneumoniae [5]): ≤ 0.125 µg/mL | MIC (Escherichia coli [9]): ≤ 0.125 µg/mL | MIC (Staphylococcus aureus [10]): ≤ 0.125 µg/mL

O=C(O)c1cn(C2CC2)c2cc(N3CCN(C(=O)CN4C(=O)S/C(=C\c5ccco5)C4=O)CC3)c(F)cc2c1=O
MIC (Staphylococcus aureus [11]): 0.005 µg/mL (≈ 0.00883 µM) | MIC (Staphylococcus aureus [12]): 0.22 µg/mL (≈ 0.388 µM)

CCCc1nn(CN2CCN(c3ncc4c(=O)c(C(=O)O)cn(CC)c4n3)CC2)c(=S)n1-c1cccc(OC)c1
MIC (Escherichia coli [13]): 0.98 µg/mL (≈ 1.74 µM)

O=C(O)c1cn(C2CC2)c2cc(N3CCN(C(=O)CN4C(=O)S/C(=C\c5ccccc5)C4=O)CC3)c(F)cc2c1=O
MIC (Staphylococcus aureus [11]): 0.005 µg/mL (≈ 0.00867 µM) | MIC (Staphylococcus aureus [12]): 0.02 µg/mL (≈ 0.0347 µM)

Cc1nn(Cc2nn(CN3CCN(c4cc5c(cc4F)c(=O)c(C(=O)O)cn5C4CC4)CC3)c(=S)n2Cc2ccccc2)c(=O)n1/N=C/c1ccccc1O
MIC (Escherichia coli [4]): < 0.24 µg/mL | MIC (Klebsiella pneumoniae [5]): < 0.24 µg/mL | MIC (Staphylococcus aureus [6]): < 28 µg/mL

Cn1c(=O)c(C(=O)CNc2ccc(-c3nc4ccc(Cl)c(Cl)c4s3)cc2)c(O)c2ccccc21
MIC (Escherichia coli [14]): 0.5 µg/mL (≈ 0.98 µM) | MIC (Pseudomonas aeruginosa [15]): 0.5 µg/mL (≈ 0.98 µM)

CCn1cc(C(=O)O)c(=O)c2cc(F)c(N3CCN(Cn4nc(Cn5nc(C)n(/N=C/c6ccccc6O)c5=O)n(Cc5ccccc5)c4=S)CC3)cc21
MIC (Escherichia coli [4]): < 0.24 µg/mL | MIC (Klebsiella pneumoniae [5]): < 0.24 µg/mL | MIC (Staphylococcus aureus [6]): < 28 µg/mL

Cc1nn(Cc2nn(CN3CCN(c4cc5c(cc4F)c(=O)c(C(=O)O)cn5C4CC4)CC3)c(=S)n2-c2ccccc2)c(=O)n1/N=C/c1ccccc1O
MIC (Escherichia coli [4]): < 0.24 µg/mL | MIC (Klebsiella pneumoniae [5]): < 0.24 µg/mL | MIC (Staphylococcus aureus [6]): < 28 µg/mL

Cc1ccc(Oc2ccnc(Nc3ccc4c(=O)c(C(=O)O)cn(C5CC5)c4c3)n2)cc1C
MIC (Staphylococcus aureus [7]): 0.38 µg/mL (≈ 0.859 µM)

CCn1cc(C(=O)O)c(=O)c2cc(F)c(N3CCN(Cn4nc(-c5ccccn5)n(-c5ccc(OC)cc5)c4=S)CC3)cc21
MIC (Klebsiella pneumoniae [5]): ≤ 0.125 µg/mL | MIC (Escherichia coli [9]): ≤ 0.125 µg/mL | MIC (Staphylococcus aureus [10]): ≤ 0.125 µg/mL

CCCCc1nn(CN2CCN(c3ncc4c(=O)c(C(=O)O)cn(CC)c4n3)CC2)c(=S)n1-c1cccc(OC)c1
MIC (Escherichia coli [13]): 0.98 µg/mL (≈ 1.69 µM)

CCc1nn(CN2CCN(c3ncc4c(=O)c(C(=O)O)cn(CC)c4n3)CC2)c(=S)n1-c1cccc(OC)c1
MIC (Escherichia coli [13]): 0.98 µg/mL (≈ 1.78 µM)

C[C@@H](N)C(=O)N1CCN(c2cc3c(cc2F)c(=O)c(C(=O)N2CCOCC2)cn3C2CC2)CC1
MIC (Escherichia coli [2]): 0.4 µg/mL (≈ 0.848 µM)

CCn1cc(C(=O)O)c(=O)c2cc(F)c(N3CCN(Cn4nc(-c5cccnc5)oc4=S)CC3)cc21
MIC (Staphylococcus aureus [1]): ≤ 0.125 µg/mL | MIC (Escherichia coli [2]): ≤ 0.125 µg/mL | MIC (Pseudomonas aeruginosa [3]): ≤ 0.125 µg/mL

O=C(CN1CCN(c2cc3c(cc2F)c(=O)c(C(=O)O)cn3C2CC2)CC1)Nc1nnc(-c2ccc(Cl)cc2)s1
MIC (Escherichia coli [16]): 1.12 µg/mL (≈ 1.92 µM) | MIC (Pseudomonas aeruginosa [17]): 9.11 µg/mL (≈ 15.6 µM) | MIC (Klebsiella pneumoniae [18]): 1.12 µg/mL (≈ 1.92 µM) | MIC (Staphylococcus aureus [11]): 1.12 µg/mL (≈ 1.92 µM) | Ratio (Staphylococcus aureus [19]): 4.6 | Ratio (Escherichia coli [20]): 4.6

CC1(C)S[C@@H]2[C@H](NC(=O)[C@H](N)c3ccccc3)C(=O)N2[C@H]1C(=O)O [AMPICILLIN]
MIC (Escherichia coli [14]): 0.5 µg/mL (≈ 1.43 µM) | MIC (Pseudomonas aeruginosa [15]): 0.5 µg/mL (≈ 1.43 µM)

COc1c(N2CCNC(C)C2)c(F)cc2c(=O)c(C(=O)O)cn(C3CC3)c12 (stereo not given) [GATIFLOXACIN]
MIC (Escherichia coli [14]): 0.25 µg/mL (≈ 0.666 µM) | MIC (Pseudomonas aeruginosa [15]): 0.25 µg/mL (≈ 0.666 µM) | MIC (Staphylococcus aureus [1]): 0.72 µg/mL (≈ 1.92 µM) | MIC (Escherichia coli [2]): 0.66 µg/mL (≈ 1.76 µM) | MIC (Enterococcus faecalis): 0.47 µg/mL (≈ 1.25 µM) | MIC (Escherichia coli [8]): 0.66 µg/mL (≈ 1.76 µM)

NNC(=O)c1ccncc1 [ISONIAZID]
MIC [21]: 1.5 µg/mL (≈ 10.9 µM)

C[C@H]1COc2c(N3CCN(C)CC3)c(F)cc3c(=O)c(C(=O)O)cn1c23 [LEVOFLOXACIN ANHYDROUS]
MIC (Staphylococcus aureus [1]): 0.66 µg/mL (≈ 1.83 µM) | MIC (Escherichia coli [2]): 0.47 µg/mL (≈ 1.3 µM) | MIC (Enterococcus faecalis): 0.72 µg/mL (≈ 1.99 µM) | MIC (Escherichia coli [8]): 0.47 µg/mL (≈ 1.3 µM)

CCn1cc(C(=O)O)c(=O)c2cnc(N3CCNCC3)nc21 [PIPEMIDIC ACID]
MIC (Staphylococcus aureus [22]): 19.5 µg/mL (≈ 64.3 µM) | MIC (Escherichia coli [23]): 19.5 µg/mL (≈ 64.3 µM)

CO[C@H]1/C=C/O[C@@]2(C)Oc3c(C)c(O)c4c(O)c(c(/C=N/N5CCN(C)CC5)c(O)c4c3C2=O)NC(=O)/C(C)=C\C=C\[C@H](C)[C@H](O)[C@@H](C)[C@@H](O)[C@@H](C)[C@H](OC(C)=O)[C@@H]1C [RIFAMPIN]
MIC [21]: 1 µg/mL (≈ 1.22 µM)
